Tests used:
Assay in all cases: relative viability (nuclei count vs DMSO), 5 days (fraction); higher = more cells survive
BEN = tested on: BEN
How it was run: (§1)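 Cells from lung cancer lines were seeded into 1536-well plates and, one day later, dosed by pin tool. Treatments were either a single drug or a fixed dose of an anchor drug with five library-drug doses (not always all listed) in √10 steps. After 5 days, nuclei were stained in a one-step fixation (final 0.05% Triton X-100, 1% formaldehyde, 1 ug/ml Hoechst) and counted on 4× images, and relative viability is the treated-to-vehicle nuclei ratio, as the median of duplicate plates.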

ChaGo-K-1 = tested on: ChaGo-K-1
How it was run: as §1

HCC-78 = tested on: HCC-78
How it was run: as §1

LC-2-ad = tested on: LC-2-ad
How it was run: as §1

LCLC-97TM1 = tested on: LCLC-97TM1
How it was run: as §1

LK-2 = tested on: LK-2
How it was run: as §1

LU99A = tested on: LU99A
How it was run: as §1

LXF-289 = tested on: LXF-289
How it was run: as §1

NCI-H1355 = tested on: NCI-H1355
How it was run: as §1

NCI-H1651 = tested on: NCI-H1651
How it was run: as §1

NCI-H1666 = tested on: NCI-H1666
How it was run: as §1

NCI-H1944 = tested on: NCI-H1944
How it was run: as §1

NCI-H1975 = tested on: NCI-H1975
How it was run: as §1

NCI-H2087 = tested on: NCI-H2087
How it was run: as §1

NCI-H2342 = tested on: NCI-H2342
How it was run: as §1

NCI-H358 = tested on: NCI-H358
How it was run: as §1

NCI-H596 = tested on: NCI-H596
How it was run: as §1

NCI-H650 = tested on: NCI-H650
How it was run: as §1

NCI-H661 = tested on: NCI-H661
How it was run: as §1

NCI-H838 = tested on: NCI-H838
How it was run: as §1

PC-3 [JPC-3] = tested on: PC-3 [JPC-3]
How it was run: as §1

SK-MES-1 = tested on: SK-MES-1
How it was run: as §1

Structure (SMILES): O=c1cc(N2CCOCC2)oc2c(-c3cccc4c3sc3ccccc34)cccc12 + Nc1nc2[nH]cc(CCc3ccc(C(=O)N[C@@H](CCC(=O)O)C(=O)O)cc3)c2c(=O)[nH]1 [Pemetrexed] (partner 0.2 µM)
- relative viability (BEN; first compound 0.01 µM): 0.79
- relative viability (BEN; first compound 0.03162 µM): 0.746
- relative viability (BEN; first compound 0.1 µM): 0.653
- relative viability (BEN; first compound 0.3162 µM): 0.89
- relative viability (BEN; first compound 1 µM): 0.705
- relative viability (ChaGo-K-1; first compound 0.01 µM): 0.267
- relative viability (ChaGo-K-1; first compound 0.03162 µM): 0.249
- relative viability (ChaGo-K-1; first compound 0.1 µM): 0.247
- relative viability (ChaGo-K-1; first compound 0.3162 µM): 0.259
- relative viability (ChaGo-K-1; first compound 1 µM): 0.286
- relative viability (HCC-78; first compound 0.01 µM): 0.897
- relative viability (HCC-78; first compound 0.03162 µM): 0.886
- relative viability (HCC-78; first compound 0.1 µM): 0.933
- relative viability (HCC-78; first compound 0.3162 µM): 0.877
- relative viability (HCC-78; first compound 1 µM): 0.979
- relative viability (LC-2-ad; first compound 0.01 µM): 0.267
- relative viability (LC-2-ad; first compound 0.03162 µM): 0.284
- relative viability (LC-2-ad; first compound 0.1 µM): 0.282
- relative viability (LC-2-ad; first compound 0.3162 µM): 0.279
- relative viability (LC-2-ad; first compound 1 µM): 0.304
- relative viability (LCLC-97TM1; first compound 0.01 µM): 0.189
- relative viability (LCLC-97TM1; first compound 0.03162 µM): 0.162
- relative viability (LCLC-97TM1; first compound 0.1 µM): 0.202
- relative viability (LCLC-97TM1; first compound 0.3162 µM): 0.162
- relative viability (LCLC-97TM1; first compound 1 µM): 0.177
- relative viability (LK-2; first compound 0.01 µM): 0.278
- relative viability (LK-2; first compound 0.03162 µM): 0.238
- relative viability (LK-2; first compound 0.1 µM): 0.296
- relative viability (LK-2; first compound 0.3162 µM): 0.238
- relative viability (LK-2; first compound 1 µM): 0.275
- relative viability (LU99A; first compound 0.01 µM): 0.177
- relative viability (LU99A; first compound 0.03162 µM): 0.195
- relative viability (LU99A; first compound 0.1 µM): 0.139
- relative viability (LU99A; first compound 0.3162 µM): 0.19
- relative viability (LU99A; first compound 1 µM): 0.176
- relative viability (LXF-289; first compound 0.01 µM): 0.879
- relative viability (LXF-289; first compound 0.03162 µM): 0.925
- relative viability (LXF-289; first compound 0.1 µM): 0.913
- relative viability (LXF-289; first compound 0.3162 µM): 0.864
- relative viability (LXF-289; first compound 1 µM): 0.963
- relative viability (NCI-H1355; first compound 0.01 µM): 1.12
- relative viability (NCI-H1355; first compound 0.03162 µM): 0.915
- relative viability (NCI-H1355; first compound 0.1 µM): 1.05
- relative viability (NCI-H1355; first compound 0.3162 µM): 1.1
- relative viability (NCI-H1355; first compound 1 µM): 0.981
- relative viability (NCI-H1651; first compound 0.01 µM): 0.547
- relative viability (NCI-H1651; first compound 0.03162 µM): 0.564
- relative viability (NCI-H1651; first compound 0.1 µM): 0.569
- relative viability (NCI-H1651; first compound 0.3162 µM): 0.552
- relative viability (NCI-H1651; first compound 1 µM): 0.578
- relative viability (NCI-H1666; first compound 0.01 µM): 0.944
- relative viability (NCI-H1666; first compound 0.03162 µM): 0.912
- relative viability (NCI-H1666; first compound 0.1 µM): 0.896
- relative viability (NCI-H1666; first compound 0.3162 µM): 0.779
- relative viability (NCI-H1666; first compound 1 µM): 0.82
- relative viability (NCI-H1944; first compound 0.01 µM): 0.691
- relative viability (NCI-H1944; first compound 0.03162 µM): 0.674
- relative viability (NCI-H1944; first compound 0.1 µM): 0.624
- relative viability (NCI-H1944; first compound 0.3162 µM): 0.589
- relative viability (NCI-H1944; first compound 1 µM): 0.635
- relative viability (NCI-H1975; first compound 0.01 µM): 0.309
- relative viability (NCI-H1975; first compound 0.03162 µM): 0.27
- relative viability (NCI-H1975; first compound 0.1 µM): 0.294
- relative viability (NCI-H1975; first compound 0.3162 µM): 0.267
- relative viability (NCI-H1975; first compound 1 µM): 0.309
- relative viability (NCI-H2087; first compound 0.01 µM): 0.665
- relative viability (NCI-H2087; first compound 0.03162 µM): 0.633
- relative viability (NCI-H2087; first compound 0.1 µM): 0.693
- relative viability (NCI-H2087; first compound 0.3162 µM): 0.662
- relative viability (NCI-H2087; first compound 1 µM): 0.651
- relative viability (NCI-H2342; first compound 0.01 µM): 0.795
- relative viability (NCI-H2342; first compound 0.03162 µM): 0.753
- relative viability (NCI-H2342; first compound 0.1 µM): 0.772
- relative viability (NCI-H2342; first compound 0.3162 µM): 0.755
- relative viability (NCI-H2342; first compound 1 µM): 0.784
- relative viability (NCI-H358; first compound 0.01 µM): 0.166
- relative viability (NCI-H358; first compound 0.03162 µM): 0.179
- relative viability (NCI-H358; first compound 0.1 µM): 0.181
- relative viability (NCI-H358; first compound 0.3162 µM): 0.18
- relative viability (NCI-H358; first compound 1 µM): 0.173
- relative viability (NCI-H596; first compound 0.01 µM): 0.452
- relative viability (NCI-H596; first compound 0.03162 µM): 0.521
- relative viability (NCI-H596; first compound 0.1 µM): 0.528
- relative viability (NCI-H596; first compound 0.3162 µM): 0.517
- relative viability (NCI-H596; first compound 1 µM): 0.482
- relative viability (NCI-H650; first compound 0.01 µM): 0.764
- relative viability (NCI-H650; first compound 0.03162 µM): 1.08
- relative viability (NCI-H650; first compound 0.3162 µM): 0.85
- relative viability (NCI-H650; first compound 1 µM): 0.786
- relative viability (NCI-H661; first compound 0.01 µM): 0.867
- relative viability (NCI-H661; first compound 0.03162 µM): 0.898
- relative viability (NCI-H661; first compound 0.1 µM): 0.95
- relative viability (NCI-H661; first compound 0.3162 µM): 0.925
- relative viability (NCI-H661; first compound 1 µM): 0.892
- relative viability (NCI-H838; first compound 0.01 µM): 0.255
- relative viability (NCI-H838; first compound 0.03162 µM): 0.237
- relative viability (NCI-H838; first compound 0.1 µM): 0.241
- relative viability (NCI-H838; first compound 0.3162 µM): 0.227
- relative viability (NCI-H838; first compound 1 µM): 0.26
- relative viability (PC-3 [JPC-3]; first compound 0.01 µM): 1.09
- relative viability (PC-3 [JPC-3]; first compound 0.03162 µM): 1.14
- relative viability (PC-3 [JPC-3]; first compound 0.1 µM): 1.05
- relative viability (PC-3 [JPC-3]; first compound 0.3162 µM): 1.1
- relative viability (PC-3 [JPC-3]; first compound 1 µM): 1.1
- relative viability (SK-MES-1; first compound 0.01 µM): 0.868
- relative viability (SK-MES-1; first compound 0.03162 µM): 0.943
- relative viability (SK-MES-1; first compound 0.1 µM): 0.906
- relative viability (SK-MES-1; first compound 0.3162 µM): 0.821
- relative viability (SK-MES-1; first compound 1 µM): 0.91

From the supplement of paper PMC10307832
